Data from ChEMBL document CHEMBL4152341, “Small Molecules Simultaneously Inhibiting p53-Murine Double Minute 2 (MDM2) Interaction and Histone Deacetylases (HDACs): Discovery of Novel Multitargeting Antitumor Agents” (J Med Chem, 2018).

How the values were obtained:
Rattus norvegicus [1] = assay: AUC (0 to infinity) in Sprague-Dawley rat at 20 mg/kg, po administered via gavage by LC-MS/MS analysis; format: ADME, organism-based; set-up: dose 20 mg/kg, route oral, time infinity; conditions: in vivo
Histone deacetylase 2 = Histone deacetylase 2 (Homo sapiens, UniProt Q92769); assay: Inhibition of HDAC2 (unknown origin) after 30 mins by fluorescence assay
Sequence of Histone deacetylase 2 (Q92769 whole entry): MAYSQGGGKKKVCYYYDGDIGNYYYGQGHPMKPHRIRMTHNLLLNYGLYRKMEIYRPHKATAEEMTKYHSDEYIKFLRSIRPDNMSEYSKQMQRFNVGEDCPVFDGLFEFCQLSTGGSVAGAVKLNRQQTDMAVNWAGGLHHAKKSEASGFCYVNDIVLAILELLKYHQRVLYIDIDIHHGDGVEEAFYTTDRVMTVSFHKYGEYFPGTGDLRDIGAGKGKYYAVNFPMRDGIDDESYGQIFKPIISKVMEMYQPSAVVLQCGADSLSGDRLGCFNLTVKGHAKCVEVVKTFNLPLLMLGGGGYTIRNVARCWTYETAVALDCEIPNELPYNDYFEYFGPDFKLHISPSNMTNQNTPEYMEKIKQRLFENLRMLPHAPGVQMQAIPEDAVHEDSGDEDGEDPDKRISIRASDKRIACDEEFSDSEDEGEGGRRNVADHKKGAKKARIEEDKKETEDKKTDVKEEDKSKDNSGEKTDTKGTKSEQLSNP

Rattus norvegicus [2] = assay: AUC (0 to infinity) in Sprague-Dawley rat at 2 mg/kg, iv administered as bolus dose by LC-MS/MS analysis; format: ADME, organism-based; set-up: dose 2 mg/kg, time infinity, route intravenous; conditions: in vivo
MCF7 = assay: cells; conditions: Homo sapiens, MCF7, 72 h
Description: Antiproliferative activity against human MCF7 cells after 72 hrs by CCK8 assay

Rattus norvegicus [3] = assay: Clearance in Sprague-Dawley rat at 2 mg/kg, iv administered as bolus dose by LC-MS/MS analysis; format: ADME, organism-based; conditions: in vivo
[4] = target: E3 ubiquitin-protein ligase Mdm2 (Homo sapiens, UniProt Q00987); assay: Inhibition of MDM2 (unknown origin) preincubated for 30 mins by fluorescence polarization assay
Sequence of E3 ubiquitin-protein ligase Mdm2 (Q00987 whole entry): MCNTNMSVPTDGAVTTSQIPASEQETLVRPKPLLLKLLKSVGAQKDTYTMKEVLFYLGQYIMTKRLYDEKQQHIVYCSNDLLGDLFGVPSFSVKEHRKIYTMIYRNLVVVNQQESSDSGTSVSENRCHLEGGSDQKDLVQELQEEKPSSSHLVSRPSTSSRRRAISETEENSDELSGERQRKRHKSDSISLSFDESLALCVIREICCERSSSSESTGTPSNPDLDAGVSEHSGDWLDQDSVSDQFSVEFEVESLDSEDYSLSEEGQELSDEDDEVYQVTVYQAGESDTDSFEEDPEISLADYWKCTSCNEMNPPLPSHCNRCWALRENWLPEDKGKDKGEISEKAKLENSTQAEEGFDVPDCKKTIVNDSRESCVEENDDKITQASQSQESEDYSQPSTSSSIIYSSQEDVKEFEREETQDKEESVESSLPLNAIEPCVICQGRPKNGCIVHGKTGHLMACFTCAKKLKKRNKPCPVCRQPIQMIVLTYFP

A549 [5] = assay: Antiproliferative activity against human A549 cells after 72 hrs by CCK8 assay; format: functional, cell-based; conditions: A549, 72 h
[6] = target: T1, Protein deacetylase HDAC6 (Homo sapiens, UniProt Q9UBN7); assay: Inhibition of HDAC6 (unknown origin) after 30 mins by fluorescence assay
T1 sequence (Q9UBN7 whole entry): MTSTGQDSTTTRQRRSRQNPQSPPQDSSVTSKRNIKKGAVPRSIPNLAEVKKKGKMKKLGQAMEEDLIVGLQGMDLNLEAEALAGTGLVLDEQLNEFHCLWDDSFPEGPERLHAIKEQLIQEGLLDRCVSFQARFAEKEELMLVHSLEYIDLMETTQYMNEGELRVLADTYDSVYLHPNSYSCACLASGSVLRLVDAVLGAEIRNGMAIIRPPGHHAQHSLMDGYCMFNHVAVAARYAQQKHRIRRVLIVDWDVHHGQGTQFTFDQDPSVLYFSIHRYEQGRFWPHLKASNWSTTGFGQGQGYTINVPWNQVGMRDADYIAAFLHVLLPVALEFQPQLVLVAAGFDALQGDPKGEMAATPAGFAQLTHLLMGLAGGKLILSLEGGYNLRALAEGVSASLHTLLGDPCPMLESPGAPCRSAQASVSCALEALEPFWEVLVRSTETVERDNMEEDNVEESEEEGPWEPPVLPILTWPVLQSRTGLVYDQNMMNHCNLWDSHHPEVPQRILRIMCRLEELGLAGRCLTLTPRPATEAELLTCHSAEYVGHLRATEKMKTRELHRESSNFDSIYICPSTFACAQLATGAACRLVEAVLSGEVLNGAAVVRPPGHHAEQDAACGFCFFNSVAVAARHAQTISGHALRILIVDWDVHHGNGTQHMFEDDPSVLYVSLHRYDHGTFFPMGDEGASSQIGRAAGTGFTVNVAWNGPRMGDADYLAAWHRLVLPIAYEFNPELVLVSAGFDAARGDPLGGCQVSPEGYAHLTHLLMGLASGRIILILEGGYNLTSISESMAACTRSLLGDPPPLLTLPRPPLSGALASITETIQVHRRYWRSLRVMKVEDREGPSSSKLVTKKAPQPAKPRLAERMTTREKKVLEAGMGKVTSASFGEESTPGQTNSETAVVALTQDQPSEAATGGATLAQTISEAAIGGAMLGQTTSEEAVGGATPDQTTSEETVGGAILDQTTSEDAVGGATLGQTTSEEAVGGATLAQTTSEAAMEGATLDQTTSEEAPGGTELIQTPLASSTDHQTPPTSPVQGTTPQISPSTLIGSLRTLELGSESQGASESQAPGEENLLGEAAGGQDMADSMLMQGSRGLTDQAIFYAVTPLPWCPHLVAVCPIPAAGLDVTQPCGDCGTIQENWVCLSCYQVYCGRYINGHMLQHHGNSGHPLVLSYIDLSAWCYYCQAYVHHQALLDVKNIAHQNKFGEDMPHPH

HCT-116 = assay: Antiproliferative activity against human HCT116 cells after 72 hrs by CCK8 assay; format: functional, cell-based; conditions: HCT-116, 72 h
Rattus norvegicus [7] = assay: Volume of distribution at steady state in Sprague-Dawley rat at 2 mg/kg, iv administered as bolus dose by LC-MS/MS analysis; format: ADME, organism-based; conditions: in vivo
Mus musculus [8] = assay: Toxicity in human A549 cells xenografted in BALB/C nude mouse assessed as induction of adverse effects at 100 to 150 mg/kg, po administered once daily for 21 days starting day 11 after tumor cells implantation; format: organism-based; conditions: in vivo, 504 h
Histone deacetylase 1 = Histone deacetylase 1 (Homo sapiens, UniProt Q13547); assay: Inhibition of human recombinant full length HDAC1 using fluorogenic substrate 3 after 30 mins by fluorescence assay
Sequence of Histone deacetylase 1 (Q13547 whole entry): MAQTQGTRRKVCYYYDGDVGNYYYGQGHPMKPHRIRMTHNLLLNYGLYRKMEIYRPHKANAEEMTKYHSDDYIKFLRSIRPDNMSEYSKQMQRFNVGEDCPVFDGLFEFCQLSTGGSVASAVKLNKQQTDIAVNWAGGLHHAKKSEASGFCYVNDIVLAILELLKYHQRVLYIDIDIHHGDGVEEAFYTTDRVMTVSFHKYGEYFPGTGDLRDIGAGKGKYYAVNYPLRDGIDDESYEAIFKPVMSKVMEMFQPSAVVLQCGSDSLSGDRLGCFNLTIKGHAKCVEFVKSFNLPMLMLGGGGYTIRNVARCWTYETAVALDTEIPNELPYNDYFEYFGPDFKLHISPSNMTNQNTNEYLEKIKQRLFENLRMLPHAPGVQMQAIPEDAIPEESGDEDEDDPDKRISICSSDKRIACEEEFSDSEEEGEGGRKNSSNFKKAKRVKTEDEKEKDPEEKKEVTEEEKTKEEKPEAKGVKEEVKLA

NCI-H1299 = assay: Antiproliferative activity against human NCI-H1299 cells after 72 hrs by CCK8 assay; format: functional, cell-based; conditions: NCI-H1299, 72 h
[9] = Terminal half life in Sprague-Dawley rat at 20 mg/kg, po administered via gavage by LC-MS/MS analysis; format: ADME, organism-based; conditions: in vivo, read-out: beta t1/2 (converted)
Histone deacetylase 3 = Histone deacetylase 3 (Homo sapiens, UniProt O15379); assay: Inhibition of HDAC3 (unknown origin) after 30 mins by fluorescence assay
Sequence of Histone deacetylase 3 (O15379 whole entry): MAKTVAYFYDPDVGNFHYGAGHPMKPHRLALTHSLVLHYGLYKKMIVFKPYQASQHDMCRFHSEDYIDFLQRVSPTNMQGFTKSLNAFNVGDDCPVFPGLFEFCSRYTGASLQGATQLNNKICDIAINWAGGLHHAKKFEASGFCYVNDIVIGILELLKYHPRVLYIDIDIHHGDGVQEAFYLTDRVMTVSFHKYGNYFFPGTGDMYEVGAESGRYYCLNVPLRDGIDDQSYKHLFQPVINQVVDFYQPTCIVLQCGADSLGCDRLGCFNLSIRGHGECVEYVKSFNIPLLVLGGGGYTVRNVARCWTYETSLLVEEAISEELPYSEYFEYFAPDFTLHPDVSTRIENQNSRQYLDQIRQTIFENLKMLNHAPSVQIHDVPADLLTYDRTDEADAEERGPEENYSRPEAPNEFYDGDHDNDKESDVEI

A549 [10] = assay: animal or person; format: functional, Homo sapiens; conditions: Mus musculus, A549, po, read-out: TGI
Histone deacetylase 8 = target: T2, Histone deacetylase 8 (Homo sapiens, UniProt Q9BY41); assay: Inhibition of HDAC8 (unknown origin) after 30 mins by fluorescence assay
T2 sequence (Q9BY41 whole entry): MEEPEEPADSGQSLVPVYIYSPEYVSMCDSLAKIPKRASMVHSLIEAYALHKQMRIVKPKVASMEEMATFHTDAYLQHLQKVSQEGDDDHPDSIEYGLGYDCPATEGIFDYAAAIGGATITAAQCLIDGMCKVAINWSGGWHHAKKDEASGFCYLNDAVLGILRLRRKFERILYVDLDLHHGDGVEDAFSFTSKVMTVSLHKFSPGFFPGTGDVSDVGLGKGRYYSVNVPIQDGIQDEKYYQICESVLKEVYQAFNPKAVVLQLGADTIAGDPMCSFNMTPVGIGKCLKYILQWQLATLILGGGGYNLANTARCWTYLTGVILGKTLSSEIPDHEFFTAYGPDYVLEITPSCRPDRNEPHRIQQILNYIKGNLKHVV

Rattus norvegicus [11] = assay: Oral bioavailability in Sprague-Dawley rat at 20 mg/kg administered via gavage by LC-MS/MS analysis; format: ADME, organism-based; conditions: in vivo
[12] = Cmax in Sprague-Dawley rat at 2 mg/kg, iv administered as bolus dose by LC-MS/MS analysis; format: ADME, organism-based; set-up: dose 2 mg/kg, route intravenous; conditions: in vivo
[13] = Tmax in Sprague-Dawley rat at 2 mg/kg, iv administered as bolus dose by LC-MS/MS analysis; format: ADME, organism-based; conditions: in vivo
A549 [14] = assay: cells; conditions: Homo sapiens, A549, 48 h, read-out: Activity
[15] = Cmax in Sprague-Dawley rat at 20 mg/kg, po administered via gavage by LC-MS/MS analysis; format: ADME, organism-based; set-up: dose 20 mg/kg, route oral; conditions: in vivo
A549 [16] = assay: cells; conditions: Homo sapiens, A549, 48 h, read-out: Activity; remark: listed apart in the source
[17] = Tmax in Sprague-Dawley rat at 20 mg/kg, po administered via gavage by LC-MS/MS analysis; format: ADME, organism-based; conditions: in vivo
A549 [18] = assay: Antitumor activity against human A549 cells xenografted in BALB/C nude mouse assessed as inhibition of tumor growth administered orally once daily for 21 days starting day 11 after tumor cells implantation; format: functional, cell-based
Mus musculus [19] = assay: Toxicity in human A549 cells xenografted in BALB/C nude mouse assessed as body weight loss at 100 to 150 mg/kg, po administered once daily for 21 days starting day 11 after tumor cells implantation; format: organism-based; conditions: in vivo, 504 h
A549 [20] = assay: Antitumor activity against human A549 cells xenografted in BALB/C nude mouse assessed as inhibition of tumor growth at 150 mg/kg, po administered once daily for 21 days starting day 11 after tumor cells implantation; format: functional; conditions: read-out: TGI
[21] = Terminal half life in Sprague-Dawley rat at 2 mg/kg, iv administered as bolus dose by LC-MS/MS analysis; format: ADME, organism-based; conditions: in vivo, read-out: beta t1/2 (converted)

CCOc1cc(C(C)(C)C)ccc1C1=NC(c2ccc(Cl)cc2)C(c2ccc(Cl)cc2)N1C(=O)N1CCN(CCCCCCC(=O)NO)CC1 (stereo not drawn)
AUC (Rattus norvegicus [1]): 323.23 ng·h/mL | IC50 (Histone deacetylase 2): 0.42 µM | AUC (Rattus norvegicus [2]): 716.3 ng·h/mL | IC50 (MCF7): 4.34 µM | clearance (Rattus norvegicus [3]): 46.8 mL/min/kg | Ki [4]: 0.11 µM | IC50 (A549 [5]): 0.91 µM | IC50 [6]: 0.0175 µM | IC50 (HCT-116): 1.08 µM | Vdss (Rattus norvegicus [7]): 4.9 L/kg | Activity (Mus musculus [8]): Non-Toxic | IC50 (Histone deacetylase 1): 0.82 µM | IC50 (NCI-H1299): 4.16 µM | half-life [9]: 5.87 h | IC50 (Histone deacetylase 3): 0.178 µM | inhibition in vivo at 100 mg/kg (A549 [10]): 65.4% | IC50 (Histone deacetylase 8): 1.22 µM | F (Rattus norvegicus [11]): 18% | Cmax [12]: 1470 ng/mL | Tmax [13]: 4.98 min | viability at 1 µM (A549 [14]): 77.2% | Cmax [15]: 93.7 ng/mL | viability at 5 µM (A549 [16]): 64.9% | Tmax [17]: 3.33 h | TGI (A549 [18]): Dose-dependent effect | Activity (Mus musculus [19]): Non-Toxic | inhibition in vivo at 150 mg/kg (A549 [20]): 74.5% | half-life [21]: 1.22 h
